Like-named read-outs stand apart in the source and are kept apart here.
Test: 14-day oral gavage toxicokinetic study in rats
Format: in vivo
Details: rat, plasma, po; for concentration at 0.5 h / concentration at 1 h / concentration at 2 h / concentration at 4 h / concentration at 8 h / concentration at 12 h / concentration at 24 h / concentration at […]: rats; for concentration at 1 h: Day 14, 1 h; for concentration at 24 h: Day 14, 24 h; for half-life: read-out: t½ (converted)
Description: Plasma was obtained from blood samples collected from rats in a composite sampling scheme, with 3 samples collected per sex, per dose, at each target collection time, as illustrated in Table 21 to Table 25. Samples were collected from the vehicle control group on Day 1 and Day 14 at 3 hour after administration. […] Blood samples were collected in tubes containing K3EDTA as an anticoagulant and placed on ice until processed to plasma via centrifugation. Samples were stored frozen at −80° C. until shipment to the bioanalytical laboratory for analysis.
The following parameters were determined:
Cmax: Maximum observed plasma concentration (ng/mL).
A value of 0 ng/mL was assigned to all values below the lower limit of quantitation (BLQ, <10.0 ng/mL).
AUC(0-inf): Area under the plasma concentration vs. time curve extrapolated from 0 to infinity (ng*h/mL), calculated as AUC(0-t)+AUC(t-inf) where AUC(t-inf) is calculated as last measurable concentration (CLast) divided by ke, where ke is the elimination rate constant determined by linear regression of the last three analytically measured points on the log plasma concentration vs. time curve. The selection criteria of the data points for inclusion in the calculation of ke required that at least three data points representing the terminal phase (after Tmax) were regressed and that R2≧0.850 when rounded.
CL: Clearance (L/h/kg), calculated as the dose divided by AUC(0-t).
Vd: Volume of distribution (L/kg), calculated as dose divided by the product of ke and AUC(0-inf).
Vdss: Steady state volume of distribution (L/kg), calculated as clearance […] mean residence time, where mean residence time is calculated as the area under the first moment curve divided by AUC(0-t).
t½: Elimination half-life (h), calculated as ln(2)/ke, where ke is the elimination rate constant determined by linear regression. Half-life was defined as not determined if regression criteria (specified in AUC(0-inf) above) were not met.
Cmax/Dose: Normalized Cmax, calculated as Cmax divided by total dose.
AUC/Dose: Normalized AUC, calculated as AUC(0-t) divided by total dose.
ii. Statistical Analysis Mean and standard deviation (SD) were calculated in Watson. Values of BLQ were assigned a value of 0 ng/mL for mean calculations. Concentration values and derived TK parameters were reported to three significant figures.

[1] = both sexes, 15 mg/kg, Mean Compound 1 Plasma Concentration, oral 15 mg/kg, Overall
[2] = both sexes, 15 mg/kg, oral 15 mg/kg, Study Day 1, Overall
[3] = both sexes, 15 mg/kg, oral 15 mg/kg, Study Day 14, Overall
[4] = both sexes, 30 mg/kg, Mean Compound 1 Plasma Concentration, oral 30 mg/kg, Overall
[5] = both sexes, 30 mg/kg, oral 30 mg/kg, Study Day 1, Overall
[6] = both sexes, 30 mg/kg, oral 30 mg/kg, Study Day 14, Overall
[7] = female, 2 mg/kg, Compound 1 Plasma Concentration, Female, daily oral 2 mg/kg (Group 7), individual animals

CN1CCN(c2ccc(Nc3ncc4cc5n(c4n3)C3(CCCCC3)CNC5=O)nc2)CC1 [Compound 1, 2′-((5-(4-methylpiperazin-1-yl)pyridin-2-yl)amino)-7′,8′-dihydro-6′H-spiro[cyclohexane-1,9′-pyrazino[1′,2′:1,5]pyrrolo[2,3-d]pyrimidin]-6′-one]
concentration at 0.5 h (both sexes, 15 mg/kg, Mean Compound 1 Plasma Concentration, oral 15 mg/kg, Day 14, 0.5 h, Overall): 955 ng/mL | concentration at 1 h [1]: 1150 ng/mL | concentration at 2 h (both sexes, 15 mg/kg, Mean Compound 1 Plasma Concentration, oral 15 mg/kg, Day 14, 2 h, Overall): 1410 ng/mL | concentration at 4 h (both sexes, 15 mg/kg, Mean Compound 1 Plasma Concentration, oral 15 mg/kg, Day 14, 4 h, Overall): 1330 ng/mL | concentration at 8 h (both sexes, 15 mg/kg, Mean Compound 1 Plasma Concentration, oral 15 mg/kg, Day 14, 8 h, Overall): 1070 ng/mL | concentration at 12 h (both sexes, 15 mg/kg, Mean Compound 1 Plasma Concentration, oral 15 mg/kg, Day 14, 12 h, Overall): 715 ng/mL | concentration at 24 h [1]: 95.3 ng/mL | AUC(0-inf) [2]: 19900 ng·h/mL | AUC(0-t) [2]: 19400 ng·h/mL | Cmax [2]: 1490 ng/mL | Tmax [2]: 2 h | half-life [2]: 4.05 h | AUC(0-inf) [3]: 18700 ng·h/mL | AUC(0-t) [3]: 18100 ng·h/mL | Cmax [3]: 1410 ng/mL | Tmax [3]: 2 h | half-life [3]: 4.47 h | concentration at 0.5 h (both sexes, 30 mg/kg, Mean Compound 1 Plasma Concentration, oral 30 mg/kg, Day 1, 0.5 h, Overall): 1790 ng/mL | concentration at 2 h (both sexes, 30 mg/kg, Mean Compound 1 Plasma Concentration, oral 30 mg/kg, Day 1, 2 h, Overall): 2360 ng/mL | concentration at 4 h (both sexes, 30 mg/kg, Mean Compound 1 Plasma Concentration, oral 30 mg/kg, Day 1, 4 h, Overall): 2380 ng/mL | concentration at 8 h (both sexes, 30 mg/kg, Mean Compound 1 Plasma Concentration, oral 30 mg/kg, Day 1, 8 h, Overall): 2160 ng/mL | concentration at 12 h (both sexes, 30 mg/kg, Mean Compound 1 Plasma Concentration, oral 30 mg/kg, Day 1, 12 h, Overall): 1800 ng/mL | concentration at 0.5 h (both sexes, 30 mg/kg, Mean Compound 1 Plasma Concentration, oral 30 mg/kg, Day 14, 0.5 h, Overall): 1270 ng/mL | concentration at 1 h [4]: 1880 ng/mL | concentration at 2 h (both sexes, 30 mg/kg, Mean Compound 1 Plasma Concentration, oral 30 mg/kg, Day 14, 2 h, Overall): 1800 ng/mL | concentration at 4 h (both sexes, 30 mg/kg, Mean Compound 1 Plasma Concentration, oral 30 mg/kg, Day 14, 4 h, Overall): 2180 ng/mL | concentration at 8 h (both sexes, 30 mg/kg, Mean Compound 1 Plasma Concentration, oral 30 mg/kg, Day 14, 8 h, Overall): 1920 ng/mL | concentration at 12 h (both sexes, 30 mg/kg, Mean Compound 1 Plasma Concentration, oral 30 mg/kg, Day 14, 12 h, Overall): 1800 ng/mL | concentration at 24 h [4]: 263 ng/mL | AUC(0-inf) [5]: 39400 ng·h/mL | AUC(0-t) [5]: 37500 ng·h/mL | Cmax [5]: 2380 ng/mL | Tmax [5]: 4 h | half-life [5]: 4.98 h | AUC(0-inf) [6]: 37000 ng·h/mL | AUC(0-t) [6]: 35000 ng·h/mL | Cmax [6]: 2180 ng/mL | Tmax [6]: 4 h | half-life [6]: 5.23 h | concentration at […] (both, 2 mg/kg, Mean Compound 1 Plasma Concentration, oral 2 mg/kg, Day 14, […], Overall): 4 ng/mL | concentration at […] (both, 5 mg/kg, Mean Compound 1 Plasma Concentration, oral 5 mg/kg, Day 1, […], Overall): 20.8 ng/mL | concentration at […] (both, 5 mg/kg, Mean Compound 1 Plasma Concentration, oral 5 mg/kg, Day 14, […], Overall): 49 ng/mL | concentration at […] (both, 15 mg/kg, Mean Compound 1 Plasma Concentration, oral 15 mg/kg, Day 1, […], Overall): 72.5 ng/mL | concentration at […] (both, 15 mg/kg, Mean Compound 1 Plasma Concentration, oral 15 mg/kg, Day 14, […], Overall): 119 ng/mL | concentration at […] (both, 30 mg/kg, Mean Compound 1 Plasma Concentration, oral 30 mg/kg, Day 1, […], Overall): 150 ng/mL | concentration at […] (both, 30 mg/kg, Mean Compound 1 Plasma Concentration, oral 30 mg/kg, Day 14, […], Overall): 372 ng/mL | concentration at 0.5 h (female, 2 mg/kg, Compound 1 Plasma Concentration, Female, Day 1, 0.5 h, daily oral 2 mg/kg (Group 7), individual animals): 139 ng/mL | concentration at 2 h (female, 2 mg/kg, Compound 1 Plasma Concentration, Female, Day 1, 2 h, daily oral 2 mg/kg (Group 7), individual animals): 216 ng/mL | concentration at 12 h (female, 2 mg/kg, Compound 1 Plasma Concentration, Female, Day 1, 12 h, daily oral 2 mg/kg (Group 7), individual animals): 91.8 ng/mL | concentration at 0.5 h (female, 2 mg/kg, Compound 1 Plasma Concentration, Female, Day 14, 0.5 h, daily oral 2 mg/kg (Group 7), individual animals): 192 ng/mL | concentration at 1 h [7]: 108 ng/mL | concentration at 2 h (female, 2 mg/kg, Compound 1 Plasma Concentration, Female, Day 14, 2 h, daily oral 2 mg/kg (Group 7), individual animals): 224 ng/mL | concentration at 4 h (female, 2 mg/kg, Compound 1 Plasma Concentration, Female, Day 14, 4 h, daily oral 2 mg/kg (Group 7), individual animals): 129 ng/mL | concentration at 24 h [7]: 21.6 ng/mL | concentration at […] (female, 2 mg/kg, Compound 1 Plasma Concentration, Female, Day 14, […], daily oral 2 mg/kg (Group 7), individual animals): 20 ng/mL
